12 compounds from ChEMBL document CHEMBL4627353, “Synthesis of novel dual target inhibitors of PARP and HSP90 and their antitumor activities” (Bioorg Med Chem, 2020) can be followed below.

Test [1] deals with T1, Heat shock protein HSP90 (Homo sapiens, UniProt P07900+P08238).
Description: Binding affinity to HSP90 (unknown origin) assessed as Stern-Volmer quenching constant by Stern-Volmer plot analysis
The target of test [2] is T1, Heat shock protein HSP90. Briefly: Binding affinity to HSP90 (unknown origin) by fluorescence quenching method. In kind it is protein assay.
Test [3] has as its system HCC1937. Briefly: Potency index, ratio of compound IC50 to Olaparib IC50 for antiproliferative activity against human HCC1937 cells. In kind it is functional.
In the next test the test system is MX1. Kind of test: Antiproliferative activity against BRCA1-deficient human MX1 cells after 48 hrs by MTT assay. Type of test: functional, cell-based. The note with it: MX1, 48 h. Background: Formazan colour is commonly taken as a measure of viable cells.
The target in test [4] is T1, Heat shock protein HSP90. This is another data set of the same source.
Description: Binding affinity to HSP90 (unknown origin) assessed as quenching constant by Stern-Volmer plot analysis
Test [5] has as its target T1, Heat shock protein HSP90. The source holds these as a separate data set.
Description: Binding affinity to HSP90 (unknown origin) by Line weaver-Burk plot analysis
The next test deals with SK-BR-3. Briefly: Antiproliferative activity against BRCA-proficient human SKBR3 cells after 48 hrs by MTT assay. The note with it: SK-BR-3, 48 h. Type of test: functional, cell-based.
The test system of a further test is MDA-MB-231. Kind of test: Antiproliferative activity against BRCA-proficient human MDA-MB-231 cells after 48 hrs by MTT assay. In kind it is functional, cell-based. Particulars: MDA-MB-231, 48 h.
In test [6] the test system is MCF7. Kind of test: Inhibition of PARP in human MCF7 cells assessed as down regulation of PAR at 1 to 100 uM in presence of adriamycin by western blotting analysis. Type of test: cell-based.
For test [7], the system named is HCC1937. Briefly: Antiproliferative activity against BRCA1-deficient human HCC1937 cells after 48 hrs by MTT assay. Type of test: functional, cell-based. Particulars: HCC1937, 48 h.
For test [8], the system named is MCF7. Briefly: Antiproliferative activity against BRCA-proficient human MCF7 cells after 48 hrs by MTT assay. In kind it is functional, cell-based. The note with it: MCF7, 48 h.
The subject of the next test is CAPAN-1. Kind of test: Antiproliferative activity against BRCA2-deficient human Capan1 cells after 48 hrs by MTT assay. Particulars: CAPAN-1, 48 h. Type of test: functional, cell-based.
The subject of test [9] is MCF7. Briefly: Potency index, ratio of compound IC50 to Olaparib IC50 for antiproliferative activity against human MCF7 cells. In kind it is functional.
Test [10] deals with T1, Heat shock protein HSP90. Briefly: Inhibition of HSP90 (unknown origin) by fluorescence quenching method. In kind it is protein assay.
Test [11] has as its target T1, Heat shock protein HSP90. Kind of test: Inhibition of HSP90 in human MDA-MB-231 cells assessed as down regulation of BRCA1 protein expression at 1 to 100 uM in presence of adriamycin by western blotting analysis. Type of test: cell-based. A general note: A western blot detects proteins with antibodies after separation by electrophoresis.

Active and inactive are the calls of the source. No cut-off for these calls is given here. Where only a bound is given, the exact number is not on record here.

Turning to `O=C1/C(=C/c2cccnc2)CN(C(=O)c2cc(Cc3n[nH]c(=O)c4ccccc34)ccc2F)C/C1=C\c1cccnc1`, the KSV on Heat shock protein HSP90 [1] came out at 3.58 ×10⁴ L/mol. The same compound gave an equilibrium dissociation constant (Kd) at Heat shock protein HSP90 [2] of 28.257 µM. The “Ratio IC50” value in the test with HCC1937 [3] is 40. The 50% inhibitory concentration (IC50) in the test on MX1 was 2 µM; with SK-BR-3, 15.9 µM; in the test on MDA-MB-231, 7.6 µM; in the test with HCC1937 [7] it was 5.3 µM; in the test on MCF7 [8] it was over 200 µM; with CAPAN-1, 82.8 µM. The same compound yielded a Kq at Heat shock protein HSP90 [4] of 4.43 ×10¹² L/mol/s. In addition, on Heat shock protein HSP90 [5], the Ka is 4.89 ×10⁵ L/mol. Further, in the test on MCF7 [6], the inhibition result was “Active”.
`O=C1CCN(C(=O)c2cc(Cc3n[nH]c(=O)c4ccccc34)ccc2F)CC1`: the IC50 in the test on MX1, with SK-BR-3, in the test on MDA-MB-231, in the test on HCC1937 [7], with MCF7 [8] and in the test with CAPAN-1 was over 200 µM in each case.
`O=C1/C(=C/c2ccccn2)CN(C(=O)c2cc(Cc3n[nH]c(=O)c4ccccc34)ccc2F)C/C1=C\c1ccccn1`: the KSV on Heat shock protein HSP90 [1] turned out to be 3.48 ×10⁴ L/mol. Besides, at Heat shock protein HSP90 [2], the Kd turned out to be 29.569 µM. For the same compound, the IC50 is 0.1 µM with MX1; 2.83 µM in the test on SK-BR-3; 0.75 µM with MDA-MB-231; 2.88 µM in the test with HCC1937 [7]; 1.47 µM in the test on MCF7 [8]; 37.3 µM in the test with CAPAN-1. At Heat shock protein HSP90 [4], this compound gave a Kq of 4.32 ×10¹² L/mol/s. Besides, the Ka at Heat shock protein HSP90 [5] came out at 4.88 ×10⁵ L/mol. Also, the inhibition result in the test on MCF7 [6] is “Active”. Moreover, the “Ratio IC50” value in the test on MCF7 [9] amounted to 200.
Take `O=C(c1cc(Cc2n[nH]c(=O)c3ccccc23)ccc1F)N1CCN(C(=O)C2CC2)CC1` [OLAPARIB]: the half-maximal inhibitory concentration (IC50) in the test on MX1 is 35.8 µM; in the test with SK-BR-3, 232 µM; in the test with MDA-MB-231, over 200 µM; in the test on HCC1937 [7], over 200 µM; in the test on MCF7 [8] it was over 200 µM; with CAPAN-1, 83.1 µM.
Regarding `O=C1/C(=C/c2cccc(F)c2)CN(C(=O)c2cc(Cc3n[nH]c(=O)c4ccccc34)ccc2F)C/C1=C\c1cccc(F)c1`, the IC50 in the test on MX1 is 2.39 µM; with SK-BR-3, over 200 µM; with MDA-MB-231, 5.17 µM; with HCC1937 [7], 10.6 µM; with MCF7 [8], 1.46 µM; in the test with CAPAN-1 it was 1.68 µM.
The compound `O=C1/C(=C/c2ccncc2)CN(C(=O)c2cc(Cc3n[nH]c(=O)c4ccccc34)ccc2F)C/C1=C\c1ccncc1` yielded a Kd on Heat shock protein HSP90 [2] of 39.975 µM. The IC50 in the test on MX1 was found to be 0.1 µM; against Heat shock protein HSP90 [10] it was 0.97 µM; in the test with SK-BR-3, 2.53 µM; in the test on MDA-MB-231, 4.38 µM; in the test on HCC1937 [7], 2.72 µM; with MCF7 [8] it was 0.97 µM. Further, half-maximal inhibition in the test with CAPAN-1 (IC50) required 0.202 µM. Also, the inhibition entry at Heat shock protein HSP90 [11] and in the test with MCF7 [6] was “Active” throughout. Also, the “Ratio IC50” value in the test on MCF7 [9] amounted to 200.
On to `COc1cc(/C=C2\CN(C(=O)c3cc(Cc4n[nH]c(=O)c5ccccc45)ccc3F)C/C(=C\c3cc(OC)c(OC)c(OC)c3)C2=O)cc(OC)c1OC`, for which the IC50 in the test with MX1 was 34.6 µM; in the test with SK-BR-3 it was over 200 µM; with MDA-MB-231, over 200 µM; in the test on HCC1937 [7], 65.3 µM; with MCF7 [8] it was over 200 µM; in the test with CAPAN-1 it was 118 µM.
On to `O=C1/C(=C/c2ccccc2O)CN(C(=O)c2cc(Cc3n[nH]c(=O)c4ccccc34)ccc2F)C/C1=C\c1ccccc1O`, for which the IC50 in the test on MX1 was 29.2 µM; in the test on SK-BR-3, over 200 µM; with MDA-MB-231 it was over 200 µM; with HCC1937 [7], over 200 µM; in the test on MCF7 [8], over 200 µM; with CAPAN-1, over 200 µM.
With `O=C1/C(=C/c2ccccc2F)CN(C(=O)c2cc(Cc3n[nH]c(=O)c4ccccc34)ccc2F)C/C1=C\c1ccccc1F`, the IC50 is 3.62 µM with MX1; over 200 µM in the test with SK-BR-3; 7.63 µM with MDA-MB-231; 16.1 µM in the test on HCC1937 [7]; 2.05 µM in the test with MCF7 [8]; 2.02 µM in the test on CAPAN-1.
Consider `O=C1/C(=C/c2ccc3c(c2)OCO3)CN(C(=O)c2cc(Cc3n[nH]c(=O)c4ccccc34)ccc2F)C/C1=C\c1ccc2c(c1)OCO2`, for which the IC50 in the test on MX1 is 13.9 µM; in the test with SK-BR-3, over 200 µM; in the test with MDA-MB-231 it was 21.1 µM; in the test with HCC1937 [7] it was 44.7 µM; in the test with MCF7 [8], 25.8 µM; with CAPAN-1 it was 32 µM.
For the compound `O=C1/C(=C/c2ccc(F)cc2)CN(C(=O)c2cc(Cc3n[nH]c(=O)c4ccccc34)ccc2F)C/C1=C\c1ccc(F)cc1`, the IC50 in the test on MX1 was over 200 µM; in the test with SK-BR-3 it was over 200 µM; with MDA-MB-231, over 200 µM; with HCC1937 [7], 36.1 µM; in the test with MCF7 [8], 173 µM; in the test with CAPAN-1, over 200 µM.
Turning to `O=C1/C(=C/c2ccc(Cl)cc2)CN(C(=O)c2cc(Cc3n[nH]c(=O)c4ccccc34)ccc2F)C/C1=C\c1ccc(Cl)cc1`, the IC50 is 4.23 µM in the test on MX1; over 200 µM in the test on SK-BR-3; 8 µM in the test with MDA-MB-231; 3.84 µM with HCC1937 [7]; 1.21 µM in the test on MCF7 [8]; 1.78 µM in the test on CAPAN-1.

In general, Kd refers to the constant that tells how readily two partners part at equilibrium. As a reminder, the IC50 is the concentration that inhibits the measured activity by half. The low end stands for greater potency, the high end for weaker potency.
